Here are results for 23 molecules from US12209071B2, “Triazine derivatives for treating diseases relating to neurotrophins” (AlzeCure Pharma AB, priority 2018, dated 2025).

One may read the EC50 as the concentration giving half of the maximal effect. Higher therefore signals a less potent agent.

For one assay, the target named is T1, TrkB (Homo sapiens, UniProt Q16620).
T1 construct: expressed in transfected cells; host or cells: U2OS
Nature of the assay: Enzyme Fragment Complementation cell-based assay, TrkB. Conditions: U2OS-cells over-expressing TrkB; ligand 10 ng/mL; 3 hours incubation. The text has this: (§1) A high throughput cell-based screen has been used to identify positive modulators of TrkA, TrkB and TrkC. The screen involves the use of cell-based assay overexpressing TrkA, TrkB or TrkC. The purpose of the assay is to identify compounds that modulate neurotrophin signalling (Forsell et al 2012). The assay can be used in inhibitor mode using a high concentration of ligand, in modulator mode using an intermediate concentration and in agonist mode using a low concentration of ligand.
(§2) The assay uses Enzyme Fragment Complementation (EFC) technique, which is a proximity-based assay. Briefly, cells used in this assay over-express two fusion proteins, i.e. the receptor, which can be either one of TrkA, TrkB, TrkC, IGF1R or FGFR1, fused to a small peptide of beta-galactosidase and an adaptor protein, i.e. SHC1 (or any other Trk-adaptor protein) fused to the major part of beta-galactosidase. […] The proximity between the small activating peptide on the receptor and the major part of beta-galactosidase on the adaptor protein leads to an active beta-galactosidase enzyme. The activation of the receptor is quantified by measuring the amount of active beta-galactosidase by its conversion of a non-luminescent substrate into a luminescent product.
(§3) U2OS-cells, over-expressing TrkA or TrkB or TrkC, are plated in 96- or 384-well plates and incubated overnight. Alternatively, cryopreserved HEK293-cells expressing IGFR1 or cryopreserved U2OS-cells expressing FGFR1 were plated in 96- or 384-well plates. On the following day, test compound was pre-mixed with ligand (NGF, BDNF, NT-3, IGF-1 or basic fibroblast growth factor (bFGF(FGF-2))) and the ligand-compound mixture is then added to the cells to yield a final ligand concentration of 10 ng/mL. After 3 hours of incubation at room temperature, the incubation is stopped by the addition of a beta-galactosidase substrate mixture containing detergents. The substrate mixture is incubated for 60 minutes at ambient temperature. The luminescence is thereafter read by the use of a plate reader.

The target in another assay is T2, IGF1R (Homo sapiens, UniProt P08069).
T2 construct: expressed in transfected cells; host or cells: HEK293 (cryopreserved)
T2 sequence (P08069 31-736 limits assumed): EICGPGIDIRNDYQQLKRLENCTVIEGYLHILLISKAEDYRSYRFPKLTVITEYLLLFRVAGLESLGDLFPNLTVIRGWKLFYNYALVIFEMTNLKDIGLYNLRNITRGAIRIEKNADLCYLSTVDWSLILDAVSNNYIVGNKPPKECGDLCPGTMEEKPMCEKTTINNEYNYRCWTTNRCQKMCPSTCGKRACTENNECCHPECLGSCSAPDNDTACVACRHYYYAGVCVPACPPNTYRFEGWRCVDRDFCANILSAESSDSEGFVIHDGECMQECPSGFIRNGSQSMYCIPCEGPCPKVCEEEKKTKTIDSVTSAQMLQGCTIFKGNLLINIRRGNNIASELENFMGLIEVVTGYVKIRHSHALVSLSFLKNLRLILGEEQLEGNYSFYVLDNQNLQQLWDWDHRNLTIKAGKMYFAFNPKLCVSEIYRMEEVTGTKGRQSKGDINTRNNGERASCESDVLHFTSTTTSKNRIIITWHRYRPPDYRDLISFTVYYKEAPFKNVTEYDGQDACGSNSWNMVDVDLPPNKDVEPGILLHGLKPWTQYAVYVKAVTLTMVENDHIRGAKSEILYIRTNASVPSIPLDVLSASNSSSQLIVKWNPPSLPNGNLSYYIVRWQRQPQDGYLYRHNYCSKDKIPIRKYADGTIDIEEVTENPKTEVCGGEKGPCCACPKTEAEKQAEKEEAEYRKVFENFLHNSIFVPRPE
T2 sequence (P08069 741-1367 limits assumed): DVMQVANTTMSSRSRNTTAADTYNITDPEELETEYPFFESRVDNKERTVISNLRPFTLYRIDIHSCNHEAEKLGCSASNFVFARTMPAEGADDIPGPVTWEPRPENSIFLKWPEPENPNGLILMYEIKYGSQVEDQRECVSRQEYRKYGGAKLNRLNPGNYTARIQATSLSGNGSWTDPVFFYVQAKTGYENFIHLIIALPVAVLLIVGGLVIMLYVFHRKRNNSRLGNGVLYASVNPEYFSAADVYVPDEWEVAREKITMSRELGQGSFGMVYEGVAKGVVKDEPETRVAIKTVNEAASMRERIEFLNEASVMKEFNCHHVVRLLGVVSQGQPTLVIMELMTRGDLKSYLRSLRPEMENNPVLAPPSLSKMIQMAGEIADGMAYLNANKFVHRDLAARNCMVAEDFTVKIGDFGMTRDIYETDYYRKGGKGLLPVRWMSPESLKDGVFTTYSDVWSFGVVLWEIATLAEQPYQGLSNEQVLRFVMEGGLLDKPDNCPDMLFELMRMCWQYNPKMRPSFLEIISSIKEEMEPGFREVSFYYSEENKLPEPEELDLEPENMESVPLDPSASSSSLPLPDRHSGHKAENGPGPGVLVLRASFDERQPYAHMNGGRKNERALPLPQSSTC
The experiment in a line: Enzyme Fragment Complementation cell-based assay, IGF1R. Conditions: cryopreserved HEK293-cells expressing IGFR1; ligand 10 ng/mL; 3 hours incubation.
Description: as §1, §2, §3

For a further assay, the target named is T3, TrkA (Homo sapiens, UniProt P04629).
T3 construct: expressed in transfected cells; host or cells: U2OS
T3 sequence (P04629 33-796): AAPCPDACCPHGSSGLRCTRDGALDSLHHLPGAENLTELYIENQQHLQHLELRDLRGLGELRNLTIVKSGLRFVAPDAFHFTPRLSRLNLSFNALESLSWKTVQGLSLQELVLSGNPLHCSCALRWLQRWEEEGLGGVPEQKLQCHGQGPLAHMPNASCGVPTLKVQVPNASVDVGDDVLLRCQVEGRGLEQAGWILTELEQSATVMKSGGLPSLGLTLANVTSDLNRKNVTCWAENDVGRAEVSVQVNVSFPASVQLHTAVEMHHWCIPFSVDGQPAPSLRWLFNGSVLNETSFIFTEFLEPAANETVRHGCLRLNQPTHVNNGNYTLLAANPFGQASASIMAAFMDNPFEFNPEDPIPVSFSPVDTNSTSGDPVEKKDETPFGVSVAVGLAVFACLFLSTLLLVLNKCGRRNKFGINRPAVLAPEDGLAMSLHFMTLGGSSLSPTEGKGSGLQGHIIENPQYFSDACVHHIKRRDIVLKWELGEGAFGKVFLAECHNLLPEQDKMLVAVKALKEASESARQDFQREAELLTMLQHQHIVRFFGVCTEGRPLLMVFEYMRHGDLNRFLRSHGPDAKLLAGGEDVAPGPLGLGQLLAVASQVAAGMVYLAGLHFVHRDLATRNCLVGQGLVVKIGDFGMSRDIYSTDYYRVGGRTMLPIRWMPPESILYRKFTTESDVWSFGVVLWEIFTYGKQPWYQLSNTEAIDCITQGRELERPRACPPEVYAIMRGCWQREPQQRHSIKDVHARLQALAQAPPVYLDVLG
The experiment in a line: Enzyme Fragment Complementation cell-based assay, TrkA. The following applies: U2OS-cells over-expressing TrkA; ligand 10 ng/mL; 3 hours incubation.
Description: as §1, §2, §3

Another assay deals with T4, FGFR1 (Homo sapiens, UniProt P11362).
T4 construct: expressed in transfected cells; host or cells: U2OS (cryopreserved)
T4 sequence (P11362 22-822): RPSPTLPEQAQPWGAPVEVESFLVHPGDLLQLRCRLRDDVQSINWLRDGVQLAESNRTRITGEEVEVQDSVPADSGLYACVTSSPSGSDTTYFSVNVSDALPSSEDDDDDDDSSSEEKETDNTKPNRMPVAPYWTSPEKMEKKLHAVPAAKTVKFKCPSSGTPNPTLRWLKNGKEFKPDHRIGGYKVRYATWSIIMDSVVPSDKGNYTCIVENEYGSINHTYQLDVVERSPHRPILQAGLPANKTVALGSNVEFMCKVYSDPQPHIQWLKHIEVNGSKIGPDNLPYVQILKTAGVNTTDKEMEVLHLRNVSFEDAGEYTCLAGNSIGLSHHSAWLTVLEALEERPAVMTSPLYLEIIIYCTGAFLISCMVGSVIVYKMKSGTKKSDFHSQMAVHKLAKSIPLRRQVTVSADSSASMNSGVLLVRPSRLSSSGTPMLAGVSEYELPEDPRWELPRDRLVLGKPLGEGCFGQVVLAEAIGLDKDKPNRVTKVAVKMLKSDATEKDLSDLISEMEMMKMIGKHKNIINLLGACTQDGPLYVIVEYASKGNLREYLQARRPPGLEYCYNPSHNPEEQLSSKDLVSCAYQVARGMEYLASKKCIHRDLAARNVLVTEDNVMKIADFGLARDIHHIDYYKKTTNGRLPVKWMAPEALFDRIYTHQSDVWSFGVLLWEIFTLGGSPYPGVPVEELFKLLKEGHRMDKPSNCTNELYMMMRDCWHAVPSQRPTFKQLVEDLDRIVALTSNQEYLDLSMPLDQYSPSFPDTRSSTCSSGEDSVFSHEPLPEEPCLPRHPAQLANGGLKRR
Nature of the assay: Enzyme Fragment Complementation cell-based assay, FGFR1. The following applies: cryopreserved U2OS-cells expressing FGFR1; ligand 10 ng/mL; 3 hours incubation.
Description: as §1, §2, §3

A further assay concerns the target T5, TrkC (Homo sapiens, UniProt Q16288).
T5 construct: expressed in transfected cells; host or cells: U2OS
The experiment in a line: Enzyme Fragment Complementation cell-based assay, TrkC. Conditions: U2OS-cells over-expressing TrkC; ligand 10 ng/mL; 3 hours incubation.
Description: as §1, §2, §3

For assay [1], the system named is ephrin type-B receptor 2 (EphB2). The following applies: Suzuki et al., FEBS Open Bio 2016; cited from earlier work.

Each structure is given as a SMILES string.

T1 sequence (Q16620 32-822): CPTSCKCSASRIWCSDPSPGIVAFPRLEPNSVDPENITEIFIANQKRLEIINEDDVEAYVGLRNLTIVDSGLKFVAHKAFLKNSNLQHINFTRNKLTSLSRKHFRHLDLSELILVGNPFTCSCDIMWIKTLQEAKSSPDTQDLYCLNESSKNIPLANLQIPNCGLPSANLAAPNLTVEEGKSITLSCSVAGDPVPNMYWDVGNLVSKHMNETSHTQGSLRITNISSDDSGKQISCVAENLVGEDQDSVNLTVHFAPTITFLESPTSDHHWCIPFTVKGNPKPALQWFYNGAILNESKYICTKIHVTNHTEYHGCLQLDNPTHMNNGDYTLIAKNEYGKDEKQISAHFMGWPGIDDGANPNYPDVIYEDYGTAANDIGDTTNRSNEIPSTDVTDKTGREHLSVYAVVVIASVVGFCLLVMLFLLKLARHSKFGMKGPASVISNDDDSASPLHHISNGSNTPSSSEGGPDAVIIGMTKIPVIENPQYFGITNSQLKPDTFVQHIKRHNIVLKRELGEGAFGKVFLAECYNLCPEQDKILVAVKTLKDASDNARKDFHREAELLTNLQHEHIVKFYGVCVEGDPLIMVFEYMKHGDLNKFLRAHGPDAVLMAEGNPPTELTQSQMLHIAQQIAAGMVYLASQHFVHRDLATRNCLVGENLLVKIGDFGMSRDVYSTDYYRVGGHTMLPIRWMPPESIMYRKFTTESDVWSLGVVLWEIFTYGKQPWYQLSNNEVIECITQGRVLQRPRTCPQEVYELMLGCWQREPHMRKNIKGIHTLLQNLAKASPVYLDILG
T5 sequence (Q16288 32-839): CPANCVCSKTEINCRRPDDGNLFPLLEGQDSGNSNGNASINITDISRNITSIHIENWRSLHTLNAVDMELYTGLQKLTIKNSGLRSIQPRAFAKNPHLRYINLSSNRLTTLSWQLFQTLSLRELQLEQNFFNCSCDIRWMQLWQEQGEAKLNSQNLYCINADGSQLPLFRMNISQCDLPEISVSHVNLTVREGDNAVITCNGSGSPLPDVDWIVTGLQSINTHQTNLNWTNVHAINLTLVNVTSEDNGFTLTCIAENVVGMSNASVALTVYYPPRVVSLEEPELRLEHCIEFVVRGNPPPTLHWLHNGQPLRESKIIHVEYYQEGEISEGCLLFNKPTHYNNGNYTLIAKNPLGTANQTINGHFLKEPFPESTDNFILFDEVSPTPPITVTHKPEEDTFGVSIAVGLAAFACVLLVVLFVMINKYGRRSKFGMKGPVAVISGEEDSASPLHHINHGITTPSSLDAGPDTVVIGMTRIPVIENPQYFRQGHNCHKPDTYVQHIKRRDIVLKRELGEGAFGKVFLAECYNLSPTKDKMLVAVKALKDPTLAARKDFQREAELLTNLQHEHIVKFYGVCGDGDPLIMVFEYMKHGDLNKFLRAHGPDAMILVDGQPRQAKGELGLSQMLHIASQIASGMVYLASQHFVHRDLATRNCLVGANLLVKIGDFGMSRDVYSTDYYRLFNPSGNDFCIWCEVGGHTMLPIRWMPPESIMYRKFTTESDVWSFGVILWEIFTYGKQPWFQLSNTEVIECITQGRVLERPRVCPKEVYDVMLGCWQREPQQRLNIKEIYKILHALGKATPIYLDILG

For `COc1cc(-n2c(=O)[nH]c(=O)n(-c3ccccc3)c2=O)ccc1Oc1ccccc1` [Example 11, 1-(3-methoxy-4-phenoxyphenyl)-3-phenyl-1,3,5-triazinane-2,4,6-trione], the EC50 turned out to be 450 nM at TrkB, 220 nM on IGF1R, 320 nM at TrkA and 340 nM on FGFR1.
As to `O=c1[nH]c(=O)n(-c2ccc(N3CCOCC3)cc2)c(=O)n1-c1ccc(Oc2ccccc2)cc1` [Example 10, 1-[4-(morpholin-4-yl)phenyl]-3-(4-phenoxyphenyl)-1,3,5-triazinane-2,4,6-trione], the half-maximal effective concentration (EC50) at TrkB turned out to be 2200 nM; at TrkA it was 1100 nM; on FGFR1 it was 2800 nM.
Take `O=c1[nH]c(=O)n(-c2ccc(Oc3ccccc3)cc2)c(=O)n1-c1ccccc1` [Example 1, 1-(4-phenoxyphenyl)-3-phenyl-1,3,5-triazinane-2,4,6-trione]: the EC50 on TrkB is 1400 nM; at IGF1R, 1800 nM; at TrkA, 1300 nM; at TrkC, 1400 nM; at FGFR1 it was 890 nM.
On to `O=c1[nH]c(=O)n(-c2ccc(Oc3ccc(Cl)cc3)cc2)c(=O)n1-c1ccccc1` [Example 7, 1-[4-(4-chlorophenoxy)phenyl]-3-phenyl-1,3,5-triazinane-2,4,6-trione], for which the EC50 was 2600 nM at IGF1R and 3900 nM on TrkA.
`COc1cccc(-n2c(=O)[nH]c(=O)n(-c3ccc(Oc4ccccc4)cc3)c2=O)c1` [Example 4, 1-(3-methoxyphenyl)-3-(4-phenoxyphenyl)-1,3,5-triazinane-2,4,6-trione]: the 50% effective concentration (EC50) on TrkB came out at 950 nM; on IGF1R it was 840 nM; at TrkA, 830 nM; at FGFR1, 580 nM.
Turning to `O=c1[nH]c(=O)n(-c2ccc(OCc3ccccc3)cc2)c(=O)n1-c1ccccc1` [Example 6, 1-[4-(benzyloxy)phenyl]-3-phenyl-1,3,5-triazinane-2,4,6-trione], the concentration for a half-maximal effect (EC50) on IGF1R and at TrkA was 4400 nM each time.
As to `COc1cc(Oc2ccccc2)ccc1-n1c(=O)[nH]c(=O)n(-c2ccccc2)c1=O` [Example 9, 1-(2-methoxy-4-phenoxyphenyl)-3-phenyl-1,3,5-triazinane-2,4,6-trione], the concentration for a half-maximal effect (EC50) on TrkB came to 270 nM; at IGF1R, 270 nM; at TrkA, 230 nM; on FGFR1, 170 nM.
Turning to `O=c1[nH]c(=O)n(-c2ccc(Nc3ccccc3)cc2)c(=O)n1-c1ccccc1` [Example 20, 1-phenyl-3-[4-(phenylamino)phenyl]-1,3,5-triazinane-2,4,6-trione], the EC50 is 8900 nM on TrkB, 6900 nM on TrkA and 3200 nM on TrkC.
In the case of `N#Cc1ccc(Oc2ccc(-n3c(=O)[nH]c(=O)n(-c4ccccc4)c3=O)cc2)cc1` [Example 8, 4-[4-(2,4,6-trioxo-3-phenyl-1,3,5-triazinan-1-yl)phenoxy]benzonitrile], the EC50 on IGF1R was determined as 2200 nM; on TrkA, 1600 nM.
For the molecule `CCOc1cc(-n2c(=O)[nH]c(=O)n(C)c2=O)ccc1Oc1ccccc1` [Example 21, 1-(3-ethoxy-4-phenoxyphenyl)-3-methyl-1,3,5-triazinane-2,4,6-trione], the concentration giving a half-maximal response (EC50) at TrkB worked out at 2300 nM; at TrkA, 2100 nM; on TrkC it was 1200 nM.
Regarding `COCCOc1cc(-n2c(=O)[nH]c(=O)n(C)c2=O)ccc1Oc1ccccc1` [Example 28, 1-[3-(2-methoxyethoxy)-4-phenoxyphenyl]-3-methyl-1,3,5-triazinane-2,4,6-trione], the results for the EC50 on TrkB, on TrkA and at TrkC were 990 nM, 1000 nM and 520 nM, respectively.
`O=c1[nH]c(=O)n(-c2ccc(Oc3ccccc3)c(OC3CCCC3)c2)c(=O)n1-c1ccccc1` [Example 23, 1-[3-(cyclopentyloxy)-4-phenoxyphenyl]-3-phenyl-1,3,5-triazinane-2,4,6-trione]: the concentration giving a half-maximal response (EC50) on TrkB worked out at 920 nM; at TrkA, 1000 nM; on TrkC, 770 nM.
Turning to `Cc1cc(-n2c(=O)[nH]c(=O)n(C)c2=O)ccc1Oc1ccc(SC(F)(F)F)cc1` [toltrazuril, 1-methyl-3-(3-methyl-4-{4-[(trifluoromethyl)sulfanyl]phenoxy}phenyl)-1,3,5-triazinane-2,4,6-trione], in assay [1], the “inhibition of binding of β-amyloid oligomers to EphB2” value is 30%.
With `Cc1cn(Cc2ccccc2)c2ccc(-n3c(=O)[nH]c(=O)n(C)c3=O)cc12` [Example 38, 1-(1-benzyl-3-methyl-1H-indol-5-yl)-3-methyl-1,3,5-triazinane-2,4,6-trione], the EC50 came to 4200 nM on TrkB, 4500 nM on TrkA and 2400 nM on TrkC.
Taken in the same sequence, the figures for `Cn1c(=O)[nH]c(=O)n(-c2ccc(Oc3ccccc3)c(OC3CCCC3)c2)c1=O` [Example 15, 1-[3-(cyclopentyloxy)-4-phenoxyphenyl]-3-methyl-1,3,5-triazinane-2,4,6-trione] were 650 nM, 590 nM and 1100 nM.
The corresponding values for `O=c1[nH]c(=O)n(-c2ccc(Oc3ccccc3)c(OCC3COC3)c2)c(=O)n1-c1ccccc1` [Example 25, 1-[3-(oxetan-3-ylmethoxy)-4-phenoxyphenyl]-3-phenyl-1,3,5-triazinane-2,4,6-trione] are 790 nM, 550 nM and 1000 nM.
Taken in the same sequence, the figures for `O=c1[nH]c(=O)n(-c2ccc(Oc3ccccc3)c(Cl)c2)c(=O)n1-c1ccccc1` [Example 39, 1-(3-chloro-4-phenoxyphenyl)-3-phenyl-1,3,5-triazinane-2,4,6-trione] were 680 nM, 1400 nM and 880 nM.
As for `Cn1c(=O)[nH]c(=O)n(-c2ccc(Oc3ccccc3)c(OCc3ccccc3)c2)c1=O` [Example 30, 1-[3-(benzyloxy)-4-phenoxyphenyl]-3-methyl-1,3,5-triazinane-2,4,6-trione], the concentration for a half-maximal effect (EC50) on TrkB stood at 7500 nM; at TrkA, 1100 nM; at TrkC, 890 nM.
The corresponding values for `Cn1c(=O)[nH]c(=O)n(-c2ccc(Oc3ccccc3)c(OCC3COC3)c2)c1=O` [Example 24, 1-methyl-3-[3-(oxetan-3-ylmethoxy)-4-phenoxyphenyl]-1,3,5-triazinane-2,4,6-trione] are 610 nM, 500 nM and 220 nM.
The corresponding values for `Cc1cc(-n2c(=O)[nH]c(=O)n(-c3ccccc3)c2=O)ccc1Sc1ccccc1` [Example 34, 1-[3-methyl-4-(phenylsulfanyl)phenyl]-3-phenyl-1,3,5-triazinane-2,4,6-trione] are 2000 nM, 1600 nM and 1200 nM.
The corresponding values for `Cn1c(=O)[nH]c(=O)n(-c2ccc(Oc3ccc(Cl)cc3)cc2)c1=O` [Example 64, 1-[4-(4-chlorophenoxy)phenyl]-3-methyl-1,3,5-triazinane-2,4,6-trione] are 5900 nM, 4400 nM and 9600 nM.
`Cc1cn(-c2ccccc2)c2ccc(-n3c(=O)[nH]c(=O)n(-c4ccccc4)c3=O)cc12` [Example 35, 1-(3-Methyl-1-phenyl-1H-indol-5-yl)-3-phenyl-1,3,5-triazinane-2,4,6-trione]: the EC50 at TrkB was 260 nM; at TrkA, 980 nM; at TrkC, 500 nM.
As for `N#Cc1cc(-n2c(=O)[nH]c(=O)n(-c3ccccc3)c2=O)ccc1Oc1ccccc1` [Example 12, 2-phenoxy-5-(2,4,6-trioxo-3-phenyl-1,3,5-triazinan-1-yl)benzonitrile], the results for the concentration for a half-maximal effect (EC50) at TrkB, on TrkA and at FGFR1 were 2400 nM, 5900 nM and 4700 nM, respectively.
